# Tests used:
# Experiment in all cases: KINOMEscan competition binding assay
# LOK = LOK (Homo sapiens (Human), UniProt O94804)
# Procedure: (§1) The experiment was performed according to the standard kinase activity determination protocol by Eurofins DiscoverX Corporation (11180 Roselle St. Suite D, San Diego, CA, USA, www.discoverX.com). Specifically, the experiment was conducted using the KINOMEscan™ screening platform, which adopts an active site-directed competition binding assay to quantitatively measure the interaction between test compounds and more than hundreds of human kinases and disease-related mutants. The working principle of the screening platform and kinase assay methods are well known in the art, for example, see www.discoverX.com.
# MKNK2 = MKNK2 (Homo sapiens (Human), UniProt Q9HBH9)
# Procedure: as §1
# DDR2 = DDR2 (Homo sapiens (Human), UniProt Q16832)
# Procedure: as §1
# IKK-alpha = IKK-alpha (Homo sapiens (Human), UniProt O15111)
# Procedure: as §1
# RAF1 = RAF1 (Homo sapiens (Human), UniProt P04049)
# Procedure: as §1
# CDKL2 = CDKL2 (Homo sapiens (Human), UniProt Q92772)
# Procedure: as §1
# HIPK4 = HIPK4 (Homo sapiens (Human), UniProt Q8NE63)
# Procedure: as §1
# EPHB6 = EPHB6 (Homo sapiens (Human), UniProt O15197)
# Procedure: as §1
# TIE1 = TIE1 (Homo sapiens (Human), UniProt P35590)
# Procedure: as §1
# MKNK1 = MKNK1 (Homo sapiens (Human), UniProt Q9BUB5)
# Procedure: as §1
# BLK = BLK (Homo sapiens (Human), UniProt P51451)
# Procedure: as §1
# LCK = LCK (Homo sapiens (Human), UniProt P06239)
# Procedure: as §1
# AXL = AXL (Homo sapiens (Human), UniProt P30530)
# Procedure: as §1
# TRKA = TRKA (Homo sapiens (Human), UniProt P04629)
# Procedure: as §1
# TIE2 = TIE2 (Homo sapiens (Human), UniProt Q02763)
# Procedure: as §1
# CDK11 = CDK11 (Homo sapiens (Human), UniProt Q9BWU1)
# Procedure: as §1
# KIT(V559D) = KIT(V559D) (Homo sapiens (Human), UniProt P10721, V559D)
# Procedure: as §1
# DDR1 = DDR1 (Homo sapiens (Human), UniProt Q08345)
# Procedure: as §1
# MERTK = MERTK (Homo sapiens (Human), UniProt Q12866)
# Procedure: as §1
# IKK-beta = IKK-beta (Homo sapiens (Human), UniProt O14920)
# Procedure: as §1
# ROS1 = ROS1 (Homo sapiens (Human), UniProt P08922)
# Procedure: as §1
# CSF1R = CSF1R (Homo sapiens (Human), UniProt P07333)
# Procedure: as §1
# MST1R = MST1R (Homo sapiens (Human), UniProt Q04912)
# Procedure: as §1
# FLT3(K663Q) = FLT3(K663Q) (Homo sapiens (Human), UniProt P36888, K663Q)
# Procedure: as §1
# RET = RET (Homo sapiens (Human), UniProt P07949)
# Procedure: as §1
# PLK4 = PLK4 (Homo sapiens (Human), UniProt O00444)
# Procedure: as §1
# FLT3(D835V) = FLT3(D835V) (Homo sapiens (Human), UniProt P36888, D835V)
# Procedure: as §1
# RET(M918T) = RET(M918T) (Homo sapiens (Human), UniProt P07949, M918T)
# Procedure: as §1
# MET(Y1235D) = MET(Y1235D) (Homo sapiens (Human), UniProt P08581, Y1235D)
# Procedure: as §1
# MYO3B = MYO3B (Homo sapiens (Human), UniProt Q8WXR4)
# Procedure: as §1
# KIT = KIT (Homo sapiens (Human), UniProt P10721)
# Procedure: as §1
# PDGFRB = PDGFRB (Homo sapiens (Human), UniProt P09619)
# Procedure: as §1
# MET(M1250T) = MET(M1250T) (Homo sapiens (Human), UniProt P08581, M1250T)
# Procedure: as §1
# KIT(L576P) = KIT(L576P) (Homo sapiens (Human), UniProt P10721, L576P)
# Procedure: as §1
# FLT3 = FLT3 (Homo sapiens (Human), UniProt P36888)
# Procedure: as §1
# MERTK, sequence (Q12866 21-999): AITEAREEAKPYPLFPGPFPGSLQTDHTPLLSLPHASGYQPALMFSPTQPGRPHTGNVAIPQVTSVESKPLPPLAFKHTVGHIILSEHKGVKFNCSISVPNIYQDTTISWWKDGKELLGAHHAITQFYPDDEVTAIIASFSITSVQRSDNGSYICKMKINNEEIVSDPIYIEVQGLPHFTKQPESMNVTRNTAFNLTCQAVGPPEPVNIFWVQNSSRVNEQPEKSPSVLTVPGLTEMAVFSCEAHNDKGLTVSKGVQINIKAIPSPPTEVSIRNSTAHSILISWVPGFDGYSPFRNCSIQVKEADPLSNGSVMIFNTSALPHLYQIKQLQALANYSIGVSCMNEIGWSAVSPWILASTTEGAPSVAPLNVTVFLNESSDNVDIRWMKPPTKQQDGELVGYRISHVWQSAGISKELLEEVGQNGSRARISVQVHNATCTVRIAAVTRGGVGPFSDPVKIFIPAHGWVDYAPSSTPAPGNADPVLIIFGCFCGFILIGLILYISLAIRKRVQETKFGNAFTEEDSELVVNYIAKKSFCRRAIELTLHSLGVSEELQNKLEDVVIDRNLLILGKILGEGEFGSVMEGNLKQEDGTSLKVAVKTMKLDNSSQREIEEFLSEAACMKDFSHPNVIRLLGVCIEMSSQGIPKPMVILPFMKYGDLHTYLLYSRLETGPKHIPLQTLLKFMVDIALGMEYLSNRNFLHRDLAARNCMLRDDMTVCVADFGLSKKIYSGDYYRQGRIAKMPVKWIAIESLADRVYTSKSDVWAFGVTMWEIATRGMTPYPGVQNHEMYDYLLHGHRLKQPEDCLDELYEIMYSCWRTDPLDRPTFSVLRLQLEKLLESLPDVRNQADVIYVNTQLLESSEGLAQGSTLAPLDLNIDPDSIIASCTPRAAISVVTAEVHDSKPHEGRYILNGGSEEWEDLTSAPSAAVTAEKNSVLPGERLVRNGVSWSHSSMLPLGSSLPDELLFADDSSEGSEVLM
# TIE2, sequence (Q02763 23-1124): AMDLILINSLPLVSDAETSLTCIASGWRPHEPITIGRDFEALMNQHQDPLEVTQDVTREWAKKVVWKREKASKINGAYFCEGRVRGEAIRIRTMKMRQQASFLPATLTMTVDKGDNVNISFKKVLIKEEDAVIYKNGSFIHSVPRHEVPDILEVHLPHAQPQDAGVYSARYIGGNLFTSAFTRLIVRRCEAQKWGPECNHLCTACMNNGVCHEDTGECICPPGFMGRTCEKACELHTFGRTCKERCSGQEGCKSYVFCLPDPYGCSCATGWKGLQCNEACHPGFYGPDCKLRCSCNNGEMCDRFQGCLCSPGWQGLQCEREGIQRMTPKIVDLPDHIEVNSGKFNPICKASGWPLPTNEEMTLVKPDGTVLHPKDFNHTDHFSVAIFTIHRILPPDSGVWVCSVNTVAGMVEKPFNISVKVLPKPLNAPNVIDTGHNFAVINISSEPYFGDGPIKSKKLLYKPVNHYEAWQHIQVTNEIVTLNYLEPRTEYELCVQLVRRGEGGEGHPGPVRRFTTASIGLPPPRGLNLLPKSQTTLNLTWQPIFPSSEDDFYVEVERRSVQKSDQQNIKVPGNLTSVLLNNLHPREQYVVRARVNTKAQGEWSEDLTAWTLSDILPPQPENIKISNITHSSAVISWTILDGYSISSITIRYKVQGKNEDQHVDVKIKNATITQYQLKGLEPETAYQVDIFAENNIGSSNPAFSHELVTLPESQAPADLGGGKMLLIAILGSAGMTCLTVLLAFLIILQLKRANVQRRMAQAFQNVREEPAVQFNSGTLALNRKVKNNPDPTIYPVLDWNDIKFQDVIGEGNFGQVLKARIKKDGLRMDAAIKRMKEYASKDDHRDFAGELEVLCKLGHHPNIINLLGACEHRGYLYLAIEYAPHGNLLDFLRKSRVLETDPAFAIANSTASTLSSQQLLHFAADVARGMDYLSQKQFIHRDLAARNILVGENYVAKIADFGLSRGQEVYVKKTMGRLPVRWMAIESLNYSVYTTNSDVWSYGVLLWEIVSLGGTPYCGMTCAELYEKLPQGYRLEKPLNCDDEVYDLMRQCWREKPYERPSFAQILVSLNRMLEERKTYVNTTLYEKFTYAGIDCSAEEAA
# CDKL2, sequence (Q92772 whole entry): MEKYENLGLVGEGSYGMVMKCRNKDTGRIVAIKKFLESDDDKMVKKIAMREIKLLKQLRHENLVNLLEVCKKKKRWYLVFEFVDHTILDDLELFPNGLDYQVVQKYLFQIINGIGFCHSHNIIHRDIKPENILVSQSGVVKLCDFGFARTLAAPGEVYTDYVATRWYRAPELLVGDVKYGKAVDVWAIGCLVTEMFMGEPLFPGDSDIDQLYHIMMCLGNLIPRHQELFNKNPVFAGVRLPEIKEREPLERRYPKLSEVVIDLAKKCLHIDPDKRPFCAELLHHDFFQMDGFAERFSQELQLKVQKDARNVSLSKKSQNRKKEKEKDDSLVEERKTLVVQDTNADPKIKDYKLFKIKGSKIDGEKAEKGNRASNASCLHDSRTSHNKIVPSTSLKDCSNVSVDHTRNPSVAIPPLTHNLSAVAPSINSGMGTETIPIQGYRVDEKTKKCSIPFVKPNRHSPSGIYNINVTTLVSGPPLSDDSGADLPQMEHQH
# HIPK4, sequence (Q8NE63 whole entry): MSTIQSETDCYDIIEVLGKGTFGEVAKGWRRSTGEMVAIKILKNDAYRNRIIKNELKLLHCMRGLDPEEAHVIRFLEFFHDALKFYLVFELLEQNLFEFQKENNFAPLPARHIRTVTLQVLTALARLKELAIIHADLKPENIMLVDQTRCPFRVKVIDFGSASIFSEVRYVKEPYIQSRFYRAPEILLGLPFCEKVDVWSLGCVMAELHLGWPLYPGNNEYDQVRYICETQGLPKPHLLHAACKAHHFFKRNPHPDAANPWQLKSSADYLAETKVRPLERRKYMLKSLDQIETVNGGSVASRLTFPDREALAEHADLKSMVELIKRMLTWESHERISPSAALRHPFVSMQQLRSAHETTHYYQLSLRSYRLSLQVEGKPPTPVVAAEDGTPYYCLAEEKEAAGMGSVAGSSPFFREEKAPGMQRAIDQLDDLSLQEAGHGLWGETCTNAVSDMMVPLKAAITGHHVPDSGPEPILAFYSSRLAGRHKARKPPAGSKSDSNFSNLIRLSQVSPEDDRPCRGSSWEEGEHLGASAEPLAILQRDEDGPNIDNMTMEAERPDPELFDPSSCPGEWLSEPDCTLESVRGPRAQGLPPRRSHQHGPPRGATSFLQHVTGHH
# EPHB6, sequence (O15197 32-1021): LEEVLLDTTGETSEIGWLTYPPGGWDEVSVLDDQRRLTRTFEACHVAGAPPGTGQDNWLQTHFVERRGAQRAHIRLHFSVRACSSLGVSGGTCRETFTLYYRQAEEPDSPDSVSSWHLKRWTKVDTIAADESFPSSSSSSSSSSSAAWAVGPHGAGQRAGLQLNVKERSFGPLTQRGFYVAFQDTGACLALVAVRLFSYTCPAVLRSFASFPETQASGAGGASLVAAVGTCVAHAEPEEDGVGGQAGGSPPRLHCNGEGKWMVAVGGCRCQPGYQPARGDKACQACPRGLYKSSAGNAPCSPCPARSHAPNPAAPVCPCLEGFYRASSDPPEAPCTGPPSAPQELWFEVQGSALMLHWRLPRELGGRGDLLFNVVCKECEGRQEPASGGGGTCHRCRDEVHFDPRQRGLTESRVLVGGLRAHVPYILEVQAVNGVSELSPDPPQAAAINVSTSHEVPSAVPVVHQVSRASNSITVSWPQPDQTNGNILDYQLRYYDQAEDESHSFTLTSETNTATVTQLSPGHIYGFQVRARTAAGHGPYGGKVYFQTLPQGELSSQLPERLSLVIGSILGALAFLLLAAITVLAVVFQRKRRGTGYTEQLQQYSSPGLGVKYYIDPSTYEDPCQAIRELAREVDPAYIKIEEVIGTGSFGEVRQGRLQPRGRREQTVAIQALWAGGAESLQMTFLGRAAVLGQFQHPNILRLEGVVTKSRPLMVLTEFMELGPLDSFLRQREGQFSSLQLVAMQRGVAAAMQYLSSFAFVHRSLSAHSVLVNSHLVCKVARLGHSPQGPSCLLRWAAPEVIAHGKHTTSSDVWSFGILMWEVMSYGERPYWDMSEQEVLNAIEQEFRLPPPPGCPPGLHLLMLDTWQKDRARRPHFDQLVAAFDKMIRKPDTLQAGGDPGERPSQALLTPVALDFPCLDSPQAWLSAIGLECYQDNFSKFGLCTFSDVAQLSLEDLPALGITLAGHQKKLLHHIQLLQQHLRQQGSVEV
# RAF1, sequence (P04049 whole entry): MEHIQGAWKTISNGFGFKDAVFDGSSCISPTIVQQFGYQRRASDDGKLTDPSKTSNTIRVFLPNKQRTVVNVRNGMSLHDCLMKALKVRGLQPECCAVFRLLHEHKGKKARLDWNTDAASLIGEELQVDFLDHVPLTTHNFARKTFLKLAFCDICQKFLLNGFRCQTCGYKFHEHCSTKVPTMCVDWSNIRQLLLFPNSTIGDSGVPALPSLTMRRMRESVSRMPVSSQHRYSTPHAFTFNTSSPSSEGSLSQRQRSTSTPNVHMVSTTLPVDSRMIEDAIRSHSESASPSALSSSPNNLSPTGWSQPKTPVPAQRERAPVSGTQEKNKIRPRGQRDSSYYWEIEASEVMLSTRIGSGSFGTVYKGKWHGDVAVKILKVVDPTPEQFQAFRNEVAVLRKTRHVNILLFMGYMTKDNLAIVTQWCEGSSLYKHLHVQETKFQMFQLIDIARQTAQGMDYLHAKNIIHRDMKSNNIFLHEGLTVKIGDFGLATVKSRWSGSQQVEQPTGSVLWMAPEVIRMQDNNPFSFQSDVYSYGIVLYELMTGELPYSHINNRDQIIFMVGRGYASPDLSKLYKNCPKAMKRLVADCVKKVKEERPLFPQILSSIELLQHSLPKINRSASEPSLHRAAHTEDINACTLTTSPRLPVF
compound,measurement,setting,value
"COc1ccc(C(=O)Nc2ccc(Oc3cc4cnn(C)c4cc3-c3cn[nH]c3)c(F)c2)c(=O)n1-c1ccc(F)cc1 [Example 12, N-(3-fluoro-4-(1-methyl-6-(1H-pyrazol-4-yl)-1H-indazol-5-yloxy)phenyl)-1-(4-fluorophenyl)-6-methoxy-2-oxo-1,2-dihydropyridine-3-carboxamide]",inhibition at 2 µM,LOK,100%
same,inhibition at 2 µM,MKNK2,100%
same,inhibition at 2 µM,DDR2,100%
same,inhibition at 2 µM,IKK-alpha,97%
same,inhibition at 2 µM,RAF1,92%
same,inhibition at 2 µM,CDKL2,100%
same,inhibition at 2 µM,HIPK4,97%
same,inhibition at 2 µM,EPHB6,95%
same,inhibition at 2 µM,TIE1,99%
same,inhibition at 2 µM,MKNK1,95%
same,inhibition at 2 µM,BLK,95%
same,inhibition at 2 µM,LCK,97%
same,inhibition at 2 µM,AXL,100%
same,inhibition at 2 µM,TRKA,100%
same,inhibition at 2 µM,TIE2,99%
same,inhibition at 2 µM,CDK11,100%
same,inhibition at 2 µM,KIT(V559D),100%
same,inhibition at 2 µM,DDR1,100%
same,inhibition at 2 µM,MERTK,97%
same,inhibition at 2 µM,IKK-beta,97%
same,inhibition at 2 µM,ROS1,97%
same,inhibition at 2 µM,CSF1R,100%
same,inhibition at 2 µM,MST1R,98%
same,inhibition at 2 µM,FLT3(K663Q),93%
same,inhibition at 2 µM,RET,97%
same,inhibition at 2 µM,PLK4,90%
same,inhibition at 2 µM,FLT3(D835V),93%
same,inhibition at 2 µM,RET(M918T),95%
same,inhibition at 2 µM,MET(Y1235D),99%
same,inhibition at 2 µM,MYO3B,100%
same,inhibition at 2 µM,KIT,100%
same,inhibition at 2 µM,PDGFRB,98%
same,inhibition at 2 µM,MET(M1250T),99%
same,inhibition at 2 µM,KIT(L576P),100%
same,inhibition at 2 µM,FLT3,99%

# From patent US11952364B2, “TRK inhibitors useful as anticancer drugs” (TYLIGAND BIOSCIENCE (SHANGHAI) LIMITED, priority 2018, dated 2024)
